Tests used:
Assay type in all cases: cell-based
[1] = target: adenosine A2a receptor (A2aR) (Homo sapiens (Human), UniProt P29274); assay: Inhibition of adenosine A2a receptor cAMP signaling pathway (HTRF cAMP, CHO-K1/A2aR cells)
Summary of the method: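 CHO-K1 cells expressing human A2aR, preincubated 30 min at room temperature with compound (10000–0.001024 nM final) in HEPES/BSA buffer with rolipram and adenosine deaminase, then stimulated 30 min with […] (20 nM final). Intracellular cAMP read by HTRF after 1 h lysis/detection.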

[2] = target: adenosine A1 receptor (A1R) (Homo sapiens (Human), UniProt P30542); assay: Inhibition of adenosine A1 receptor cAMP signaling pathway (HTRF cAMP, CHO-K1/A1R cells); settings: Table 2; for IC50: CHO-K1/A1R cells, forskolin 10 μM, CPA 10 nM, cAMP HTRF; for IC50 ratio (A1R/A2aR): selectivity A1R over A2aR
Source text: (§1) Test Example 1. Determination of the inhibition activity of the compounds of the present invention on the adenosine A2a receptor (A2aR) cAMP signaling pathway, the adenosine A2b receptor (A2bR) cAMP signaling pathway, the adenosine A1 receptor (A1R) cAMP signaling pathway and the adenosine A3 receptor (A3R) cAMP signaling pathway.
(§2) The inhibition activity of the compounds of the present invention on the adenosine A2a receptor cAMP signaling pathway, the adenosine A2b receptor cAMP signaling pathway, the adenosine A1 receptor cAMP signaling pathway and the adenosine A3 receptor cAMP signaling pathway was determined by the following method. The experimental method is briefly described as follows:
2.2 Adenosine A1 receptor
(§3) CHO-K1/A1R cells were cultured in DMEM/F12 medium containing 10% fetal bovine serum and 1 mg/ml G418. The cells were digested with the cell separation buffer during the experiment. The cells were then resuspended in the balanced salt buffer containing 20 mM HEPES and 0.1% bovine serum albumin and counted, and the cell density was adjusted to 5×10^5 cells/ml. In the 384-well plate, each well was added with 12.5 μl of cell suspension, and 6.25 μl of test compound (4× concentration) formulated with the balanced salt buffer containing 20 mM HEPES, 0.1% bovine serum albumin, 54 μM rolipram and 2.7 U/ml adenosine deaminase, and the plate was incubated at room temperature for 30 minutes. Each well was then added with 6.25 μl of forskolin and N6-cyclopentyladenosine (4× concentration) formulated with the balanced salt buffer containing 20 mM HEPES, 0.1% bovine serum albumin, 54 μM rolipram and 2.7 U/ml adenosine deaminase, and the plate was incubated at room temperature for 30 minutes. The final concentrations of the compounds were: 100000, 10000, 1000, 100, 10, 1, 0.1 and 0 nM. The final concentration of forskolin was 10 μM. The final concentration of CPA was 10 nM. Intracellular cAMP concentration was detected with the cAMP dynamic 2 kit. cAMP-d2 and Anti-cAMP-Eu-Cryptate were diluted respectively with the cAMP lysis buffer at a ratio of 1:4. Each well was added with 12.5 μl of diluted cAMP-d2, followed by addition of 12.5 μl of diluted Anti-cAMP-Eu-Cryptate, and the plate was incubated at room temperature in the dark for 1 hour. The HTRF signal values were read by the PHERAstar multi-function microplate reader.

[3] = target: adenosine A3 receptor (A3R) (Homo sapiens (Human), UniProt P0DMS8); assay: Inhibition of adenosine A3 receptor cAMP signaling pathway (HTRF cAMP, CHO-K1/A3R cells); settings: Table 2; for IC50: CHO-K1/A3R cells, forskolin 10 μM, 2Cl-IB-MECA 5 nM, cAMP HTRF
Source text: as §1, §2
2.3 Adenosine A3 receptor
as §3, with “CHO-K1/A3R cells were” for “CHO-K1/A1R cells were”, “serum and 10 μg/ml puromycin. The cells” for “serum and 1 mg/ml G418. The cells”, “cells were resuspended in” for “cells were then resuspended in”, “forskolin and 2Cl-IB-MECA (4× concentration)” for “forskolin and N6-cyclopentyladenosine (4× concentration)”, “concentration of 2Cl-IB-MECA was 5” for “concentration of CPA was 10”, “2Cl-IB-MECA was 5 nM. Intracellular” for “CPA was 10 nM. Intracellular”

[4] = target: adenosine A2b receptor (A2bR) (Homo sapiens (Human), UniProt P29275); assay: Inhibition of adenosine A2b receptor cAMP signaling pathway (HTRF cAMP, CHO-K1/A2bR cells); settings: Table 3; for IC50: CHO-K1/A2bR cells, ethyl carbazole 1 μM, cAMP HTRF; for IC50 ratio (A2bR/A2aR): selectivity A2bR over A2aR
Source text: as §1, §2
2.4 Adenosine A2b receptor (A2bR)
CHO-K1/A2bR cells were cultured in DMEM/F12 medium containing 10% fetal bovine serum and 1 mg/ml G418. The cells were digested with the cell separation buffer during the experiment. The cells were resuspended in the balanced salt buffer containing 20 mM HEPES and 0.1% bovine serum albumin and counted, and the cell density was adjusted to 10^6 cells/ml. In the 384-well plate, each well was added with 5 μl of cell suspension, and 2.5 μl of test compound (4× concentration) formulated with the balanced salt buffer containing 20 mM HEPES, 0.1% bovine serum albumin, 54 μM rolipram and 2.7 U/ml adenosine deaminase, and the plate was incubated at room temperature for 30 minutes. Each well was then added with 2.5 μl of […] (4× concentration) (Torcis, 1691/10) formulated with the balanced salt buffer containing 20 mM HEPES, 0.1% bovine serum albumin, 54 μM rolipram and 2.7 U/ml adenosine deaminase, and the plate was incubated at room temperature for 30 minutes. The final concentrations of the compounds were: 100000, 10000, 1000, 100, 10, 1, 0.1 and 0 nM. The final concentration of […] was 1 μM. Intracellular cAMP concentration was detected with the cAMP dynamic 2 kit. cAMP-d2 and Anti-cAMP-Eu-Cryptate were diluted respectively with the cAMP lysis buffer at a ratio of 1:4. Each well was added with 5 μl of diluted cAMP-d2, followed by addition of 5 μl of diluted Anti-cAMP-Eu-Cryptate, and the plate was incubated at room temperature in the dark for 1 hour. The HTRF signal values were read by the PHERAstar multi-function microplate reader.

Sequence of adenosine A3 receptor (A3R) (P0DMS8 whole entry): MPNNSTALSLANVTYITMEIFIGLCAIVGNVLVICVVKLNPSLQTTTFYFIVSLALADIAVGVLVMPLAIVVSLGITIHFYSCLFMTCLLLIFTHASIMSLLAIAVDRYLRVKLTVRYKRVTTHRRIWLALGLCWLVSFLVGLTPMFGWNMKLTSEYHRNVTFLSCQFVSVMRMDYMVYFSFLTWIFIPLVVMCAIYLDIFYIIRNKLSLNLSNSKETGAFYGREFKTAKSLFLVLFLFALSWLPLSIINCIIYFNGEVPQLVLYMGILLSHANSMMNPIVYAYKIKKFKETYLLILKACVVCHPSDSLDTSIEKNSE
Sequence of adenosine A2b receptor (A2bR) (P29275 whole entry): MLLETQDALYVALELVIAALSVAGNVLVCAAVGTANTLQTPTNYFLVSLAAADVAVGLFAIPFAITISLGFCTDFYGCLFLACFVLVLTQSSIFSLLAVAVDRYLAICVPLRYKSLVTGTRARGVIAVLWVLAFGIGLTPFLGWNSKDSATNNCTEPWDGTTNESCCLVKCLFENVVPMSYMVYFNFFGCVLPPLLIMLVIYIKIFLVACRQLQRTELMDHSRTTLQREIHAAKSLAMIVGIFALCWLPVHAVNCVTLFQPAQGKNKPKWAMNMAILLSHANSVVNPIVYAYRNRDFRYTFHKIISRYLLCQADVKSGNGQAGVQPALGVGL
Sequence of adenosine A1 receptor (A1R) (P30542 whole entry): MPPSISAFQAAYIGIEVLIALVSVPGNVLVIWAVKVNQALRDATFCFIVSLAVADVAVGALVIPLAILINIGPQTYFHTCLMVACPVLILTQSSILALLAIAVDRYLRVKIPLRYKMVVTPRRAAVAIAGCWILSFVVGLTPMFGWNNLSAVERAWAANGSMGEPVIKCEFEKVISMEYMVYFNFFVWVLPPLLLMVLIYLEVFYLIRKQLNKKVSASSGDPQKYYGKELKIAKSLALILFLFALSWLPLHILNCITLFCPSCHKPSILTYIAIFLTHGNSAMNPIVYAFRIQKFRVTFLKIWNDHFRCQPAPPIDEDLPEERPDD
Sequence of adenosine A2a receptor (A2aR) (P29274 whole entry): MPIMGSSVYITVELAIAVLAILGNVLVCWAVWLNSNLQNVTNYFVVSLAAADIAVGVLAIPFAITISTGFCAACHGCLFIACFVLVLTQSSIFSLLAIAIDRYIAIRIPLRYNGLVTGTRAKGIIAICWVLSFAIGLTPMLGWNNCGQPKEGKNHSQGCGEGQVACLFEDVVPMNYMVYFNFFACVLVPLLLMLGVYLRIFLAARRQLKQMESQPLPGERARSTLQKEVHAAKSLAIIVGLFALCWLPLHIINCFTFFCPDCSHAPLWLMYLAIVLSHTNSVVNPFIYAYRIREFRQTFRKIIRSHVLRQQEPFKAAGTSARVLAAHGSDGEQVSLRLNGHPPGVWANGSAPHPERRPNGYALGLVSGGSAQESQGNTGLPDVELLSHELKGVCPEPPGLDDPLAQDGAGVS

| IC50 ([1]; Table 1, ethyl carbazole 20 nM) [nM] | IC50 ([1]; Table 2, ethyl carbazole 20 nM) [nM] | IC50 ([1]; Table 3, ethyl carbazole 20 nM) [nM] | IC50 [2] [nM] | IC50 ratio (A1R/A2aR) [2] | IC50 ratio (A3R/A2aR) [3] | IC50 [3] [nM] | IC50 [4] [nM] | IC50 ratio (A2bR/A2aR) [4] | Compound |
| --- | --- | --- | --- | --- | --- | --- | --- | --- | --- |
| 2.59 | 2.59 | 2.59 | 302 | 117 | >10^3 | > 10000 | 209 | 81 | Cc1cc(-c2c(-c3ccccc3F)nc(N)n3cnnc23)cc(CF)n1 [Example 57, 8-(2-(Fluoromethyl)-6-methylpyridin-4-yl)-7-(2-fluorophenyl)-[1,2,4]triazolo[4,3-c]pyrimidin-5-amine] |
| 3.05 | 3.05 | 3.05 | 1010 | 330 | >10^3 | > 10000 | 884 | 290 | Cc1cc(-c2c(-c3ccc(Cl)cc3F)nc(N)n3cnnc23)cc(C(F)F)n1 [Example 59, 7-(4-Chloro-2-fluorophenyl)-8-(2-(difluoromethyl)-6-methylpyridin-4-yl)-[1,2,4]triazolo[4,3-c]pyrimidin-5-amine] |
